Patent US5332733A, “Heterocyclically substituted piperazinoakylbenzoxazine and piperazinoalkylbenzothiazine compounds, processes for preparing them, and medicaments containing them” (Kali-Chemie Pharma GmbH, priority 1990, dated 1994)

Key:
mice = settings: mouse, in vivo, 1440 min
Protocol: 2. Determination of Minimum Toxic Dose
Maximum doses of 300 mg/kg of the test substance were administered orally to male mice weighing 20-25 g. The animals were observed carefully for 3 hours for toxicity symptoms. In addition, all symptoms and deaths were recorded over a period of 24 hours after administration. Associated symptoms were also observed and recorded. If death or severe toxic symptoms were observed, additional mice were administered increasingly lower doses. The lowest dose which produced death or severe toxic symptoms is given in the following Table B as the minimum toxic dose.

[1] = test system: PAF-induced aggregation of rabbit blood platelets; assay: Anti-PAF activity in vitro, PAF-induced platelet aggregation; format: cell-based, rabbit (New Zealand hybrids); settings: Oryctolagus cuniculus, test substance 10^-5 mole/l, pH 7.4
Text: 4. Determination of Anti-PAF Activity In Vitro
PAF (=Platelet Activating Factor) is a phospholipid mediator which has many effects. Activation of platelet aggregation induces protracted broncho-contraction and hyper-reactivity of the air paths.
In this test the effect of the test substances on platelet aggregation induced by adding PAF to a suspension of platelets obtained from rabbit blood is investigated using the method described by Mikashima et al. (Jap. J. Pharmacol. 44 (1987) 387-391).
A suspension of platelets obtained from rabbit blood containing 4×10^9 platelets/ml in a modified Tyrode buffer solution (=Tyrode solution with 1.3 mM/l CaCl2 and 2.5 g/l gelatine added) adjusted to pH 7.4 was used. Tyrode solution is an aqueous solution containing 136.9 mmoles NaCl, 2.68 mmoles KCl, 2.31 mmoles CaCl2, 1.0 mmole MgCl2, 11.9 mmoles NaHCO3, 1.45 mmoles NaH2 PO4 and 5.55 mmoles glucose per liter. The platelets were obtained from 10 ml blood samples from each of three rabbits (New Zealand hybrids, body weight 3-4 kg). For this the blood samples were treated with ethylenediamine tetraacetic acid and washed according to the method of Artley et al. (Brit. J. Hematol. 19 (1970), 7-17). A platelet-rich plasma was then initially separated by centrifuging (20 minutes at 400×g). The blood platelets were separated from the plasma by recentrifuging for 15 minutes at 1,400×g. The platelets remaining as sediment after centrifuging were resuspended in a Tyrode buffer solution (but without calcium). 0.4 mmole of lysine acetylsalicylate was then added, and after 15 minutes the platelets were sedimented again. The sediment was resuspended in the aforementioned modified Tyrode buffer solution, and the number of platelets in the resulting suspension was adjusted to the desired content.
A 40×10^-9 molar PAF solution was used as a reagent. This solution was made from a 1.8×10^-3 molar stock solution in chloroform. For this purpose a 10 μl sample of the stock solution was evaporated to dryness and redissolved in 180 μl of the modified Tyrode solution to which 0.25% of lipid-free bovine serum albumin had been added. From this 10^-5 molar working solutions were then prepared and stored frozen. Samples of these solutions were appropriately diluted for the tests.
To carry out the test 50 μl of the platelet suspension and 10 μl of a 40×10^-5 molar solution of the compound being investigated were added with stirring (1,000 rpm) to 330 μl of the modified Tyrode buffer solution in an aggregation tube provided with a small magnetic stirrer. This corresponds to a final test substance concentration of 10^-5 mole/l. After 90 seconds preincubation time, 10 μl of the PAF preparation were added. The aggregation occurring in the aggregation tubes was measured over 4-5 minutes with the aid of a computerized aggregometer.
The aggregation which occurred in test tubes containing only platelet suspension was evaluated as 0%, whereas the aggregation which occurred in test tubes containing platelet suspension and PAF preparation was evaluated as 100%. The aggregation which still occurred during the inhibition of the PAF induced platelet aggregation due to the addition of the test substances was measured, and the resulting aggregation inhibition was calculated therefrom in %.

[2] = test system: passive cutaneous anaphylaxis (PCA); assay: Inhibition of passive cutaneous anaphylaxis (PCA) in rats; format: in vivo, Sprague-Dawley rats; settings: Rattus norvegicus, 1 h, 2 × 10^-5 mole/kg per os, one hour before ovalbumin challenge
Protocol: (§1) 1. Determining Inhibition of Passive Cutaneous Anaphylaxis (PCA) and Histamine-Induced Anaphylactoid Cutaneous Reaction
The PCA reaction is carried out following the methods described by Goose et al. (J. N. Immunology 16 (1969), 749) and by Martin et al. (Arch. Pharmacol. 316 (1981), 186).
The IgE-rich ovalbumin antiserum used in the test was obtained from immunized Brown-Norway rats. The were immunized with an intraperitoneal injection of a mixture of 100 μg of ovalbumin with a Bordetella pertussis suspension (Vaxicoq™, Manufactured by Institute Merieux, containing 5×10^9 organisms and 1.25 mg Al(OH)3). After 20 days the animals were re-immunized with a further intraperitoneal injection of a solution of 10 μg ovalbumin in 0.5 ml physiological saline solution. After a further four days the blood was removed from the animals and centrifuged. The resulting antiserum was stored at -20° C. until use.
(§2) The inhibition of the passive cutaneous anaphylaxis and of the anaphylactoid cutaneous reaction induced by histamine was determined as follows:
(§3) Sprague-Dawley rats having a body weight of 150-180 g were injected intradermally in one flank with 50 μl of a 1:75 dilution of the IgE-rich ovalbumin antiserum in physiological saline solution to passively sensitize them to ovalbumin.
(§4) 24 hours after sensitization a solution of 8.25 mg/kg of ovalbumin and 26.4 mg/kg of a blue dye (Evans's Blue) was administered to the rats intravenously according to Martin et al. to trigger passive cutaneous anaphylaxis.
(§5) On the day of the experiment the test substances were dissolved in distilled water which contained 1 vol. % dimethylformamide and 1 vol. % of Tween™ 20 (=polyoxyethylene (20) sorbitan monolaurate). One hour before administration of the ovalbumin challenge, each animal was orally administered 2×10^-5 mole/kg of test substance in 0.5 ml of solution. For comparison purposes a control group received only the solvent.
(§6) The edematous anaphylactic (PCA) and anaphylactoid (histamine-induced) reactions caused by the stimulation of the intravenous ovalbumin injection, which manifested themselves by edema formation, swelling and exudation of blue dye, were evaluated 30 minutes after their initiation by the intravenous ovalbumin injection. This was done by visually determining the extent to which the blue dye emerged at the sites of edema formation. The percentage inhibition of anaphylactic and anaphylactoid reactions induced by the test substances in comparison with the reactions of the control animals not treated with any test substance was determined using comparison scales.
(§7) The results obtained using compounds of formula I according to the foregoing test methods are shown in the following Table A. The example numbers given for the compounds of formula I relate to the subsequent preparative examples.

[3] = test system: histamine-induced anaphylactoid cutaneous reaction; assay: Inhibition of histamine-induced anaphylactoid cutaneous reaction in rats; format: in vivo, Sprague-Dawley rats; settings: Rattus norvegicus, 1 h, 2 × 10^-5 mole/kg per os, one hour before ovalbumin challenge
Protocol: as §1, §2, §3, §4
To determine the histamine-induced anaphylactoid skin reaction, the animals are injected intradermally in the flank opposite to the antiserum administration with 50 μl of a physiological saline solution containing 0.8 mg/ml histamine directly before the intravenous injection of the solution containing the ovalbumin and the blue dye.
as §5, §6, §7

cyclooxygenase = target: T1, cyclooxygenase (Mus musculus, UniProt P22437); assay: In vitro cyclooxygenase inhibition, release of 6-keto-PGF1α from zymosan-stimulated peritoneal macrophages; format: cell-based; settings: zymosan-stimulated mouse peritoneal macrophage cells, 10^-5 mole/l
T1 construct: A cell suspension containing peritoneal cells from male mice 8-10 weeks old was obtained in a known manner; endogenous in cells; host or cells: mouse peritoneal macrophages (primary, adherent)
T1 sequence (P22437 27-602): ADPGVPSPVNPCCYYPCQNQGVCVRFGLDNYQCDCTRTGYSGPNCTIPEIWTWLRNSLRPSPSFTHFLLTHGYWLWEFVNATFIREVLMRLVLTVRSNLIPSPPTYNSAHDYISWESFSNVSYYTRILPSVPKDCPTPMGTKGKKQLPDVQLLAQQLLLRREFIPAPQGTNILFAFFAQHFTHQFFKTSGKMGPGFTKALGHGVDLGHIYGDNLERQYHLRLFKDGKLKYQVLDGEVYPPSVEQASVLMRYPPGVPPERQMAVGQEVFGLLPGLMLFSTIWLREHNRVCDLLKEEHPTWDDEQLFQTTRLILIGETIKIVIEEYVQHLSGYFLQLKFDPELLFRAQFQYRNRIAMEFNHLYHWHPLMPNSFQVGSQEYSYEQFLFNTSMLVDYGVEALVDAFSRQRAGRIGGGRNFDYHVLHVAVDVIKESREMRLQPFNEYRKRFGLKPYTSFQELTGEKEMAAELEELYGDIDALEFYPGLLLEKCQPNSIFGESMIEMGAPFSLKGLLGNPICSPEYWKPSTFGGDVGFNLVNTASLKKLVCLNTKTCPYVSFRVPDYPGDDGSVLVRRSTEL
Text: (§8) 5. In Vitro Determination of Cyclooxygenase Inhibition And 5-lipoxygenase Inhibition.
(§9) After a cell is activated, arachidonic acid contained in cell membranes is metabolized in two ways. Leucotrienes, inter alia leucotriene C4, are formed due to the action of the enzyme 5-lipoxygenase (=5-LO), and prostanoids are formed due to the action of the enzyme cyclooxygenase (=CO). In in vitro systems these metabolites are secreted from the cell.
(§10) To evaluate the cyclooxygenase-inhibiting and 5-lipoxygenase-inhibiting properties of the test substances, their inhibitory activity on the biosynthesis of the arachidonic acid derivatives leucotriene C4 (=LTC4) and 6-keto-prostaglandin F1α (=6-keto-PGF1α) was determined in vitro on mouse peritoneal macrophage cells. For this purpose the LTC4 and 6-keto-PGF1α contents of a mouse peritoneal macrophage cell culture medium were determined by zymosan stimulation as described by Scott et al. (J. Exp. Med. 152 (1980), 324-335) and by Fradin et al., (Prostaglandins, 33 (1987), 579-589).
(§11) A cell suspension containing peritoneal cells from male mice 8-10 weeks old was obtained in a known manner. A solution marketed under the designation RPMI 1640 (Manufactured by Gibco) was used as the cell culture medium, to which heparin (10 international units/ml) and antibiotics were added according to the procedure of Bonney et al. (Biochem. J. 176 (1978) 422-433). The cell suspension was adjusted to a cell concentration of 10^6 cells per ml and distributed uniformly on titer dishes containing 24 1-ml titer cells (wells). These were kept for two hours in a humidified incubator filled with air enriched with 7% CO2. Cells not adhering to the titer well walls were then removed by washing. The remaining macrophage cells adhering to the walls were incubated for about 12 hours in a suspension medium to which 0.1% of bovine serum albumin (BSA=Bovine Serum Albumin) was added. The suspension medium was then replaced by a Hanks salt solution (=Hanks Balanced Salt Solution=HBSS) with 10 mmoles of HEPES (=hydroxyethylpiperazinoethanesulfonic acid) to which a 0.1% strength solution of the test substances in aqueous, 1% strength dimethylformamide or only the solvent had been added. After 15 minutes the arachidonic acid metabolism was stimulated by adding […] of zymosan (=glycoprotein mixture isolated from cell walls of beer yeast, Saccharomyces cerevisiae, Manufactured by Sigma Chemical Co., Munich) per titre cell. After 2 hours samples of the respective supernatant liquid in each cell were examined for their 6-keto-PGF1α and LTC4 contents by an enzyme immunoassay (=EIA). This EIA is carried out following the method of Pradelles et al. (Analytical Chem. 57 (1985), 1170-1173). The determination of LTC4 and the determination of 6-keto-PGF1α were each carried out on suitable dilutions of the samples (1:50 to 1:250 for the LTC4 determination and 1:250 to 1:1,250 for the 6-keto-PGF1α determination) in comparison with a comparative scale. To determine the inhibiting effect of a 10^-5 molar concentration of the compounds, the amounts of reference eicosanoid were determined, and the inhibiting effect was calculated therefrom in % inhibition compared to the measurements of the zymosan controls.

5-lipoxygenase = target: T2, 5-lipoxygenase (Mus musculus, UniProt P48999); assay: In vitro 5-lipoxygenase inhibition, release of LTC4 from zymosan-stimulated peritoneal macrophages; format: cell-based; settings: zymosan-stimulated mouse peritoneal macrophage cells, 10^-5 mole/l
T2 construct: A cell suspension containing peritoneal cells from male mice 8-10 weeks old was obtained in a known manner; endogenous in cells; host or cells: mouse peritoneal macrophages (primary, adherent)
T2 sequence (P48999 1-674): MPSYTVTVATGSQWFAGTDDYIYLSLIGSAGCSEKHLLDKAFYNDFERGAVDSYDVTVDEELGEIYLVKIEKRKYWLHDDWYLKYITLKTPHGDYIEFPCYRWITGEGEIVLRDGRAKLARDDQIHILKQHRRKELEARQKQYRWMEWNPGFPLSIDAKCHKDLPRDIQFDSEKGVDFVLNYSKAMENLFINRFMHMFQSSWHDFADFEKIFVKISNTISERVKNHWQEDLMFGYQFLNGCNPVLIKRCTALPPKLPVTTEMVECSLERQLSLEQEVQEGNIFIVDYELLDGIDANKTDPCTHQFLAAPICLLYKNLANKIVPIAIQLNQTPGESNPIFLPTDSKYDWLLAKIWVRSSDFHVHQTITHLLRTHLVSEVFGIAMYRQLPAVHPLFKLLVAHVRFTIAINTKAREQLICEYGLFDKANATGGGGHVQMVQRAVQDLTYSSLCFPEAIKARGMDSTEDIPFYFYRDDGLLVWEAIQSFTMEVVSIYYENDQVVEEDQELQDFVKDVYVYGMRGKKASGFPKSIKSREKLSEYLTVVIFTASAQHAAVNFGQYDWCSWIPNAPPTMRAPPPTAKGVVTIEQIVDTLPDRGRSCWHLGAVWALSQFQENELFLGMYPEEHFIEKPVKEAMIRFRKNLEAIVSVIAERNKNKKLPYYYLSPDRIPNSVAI
Text: as §8, §9, §10, §11

| SMILES | Minimum toxic dose (mice) [mg/kg] | inhibition at 10 µM [1] [%] | inhibition in vivo at 20 µmol/kg [2] [%] | inhibition in vivo at 20 µmol/kg [3] [%] | % inhibition upon release of 6-keto-PGF1α (cyclooxygenase) [%] | % inhibition upon release of LTC4 (5-lipoxygenase) [%] |
| --- | --- | --- | --- | --- | --- | --- |
| Cc1ccnc(N2CCN(CCCC3Oc4ccc(C)cc4NC3=O)CC2)c1 (stereo not drawn) [Example 22] | 300 | 42 | 69 | 45 |  |  |
| Cc1ccnc(N2CCN(C3Sc4ccccc4NC3=O)CC2)c1 (stereo not drawn) [Example 5, 2-[4-(4-methylpyridin-2-yl)-piperazin-1-yl]-2H-1,4-benzothiazine-3(4H)-one] |  |  |  |  | 36 | 72 |
